Assay results as given in publication PMC7156724, “Potent BRD4 inhibitor suppresses cancer cell-macrophage interaction” (Nature Communications, 2020).
Values joined by “and” are separate entries in the source; they are usually repeats but may differ in a detail not shown here. Equal entries are not always repeated.

Columns and labels:
CSF1 mRNA = experiment: RT-qPCR of CSF1 mRNA in mouse tumor cells (ID8, B16); format: cell-based; details: ID8, 50 nM, 48 h
[1] = Metabolic stability assay, rat liver microsomes; details: for Remaining in rat liver microsomes (Sup Fig.6b): in % (unit assumed)
Procedure: 7. Metabolic stability assay. The metabolic profile of NHWD-870 was determined using mouse, rat, dog, monkey, and human liver microsomes using the protocols […]
No. Compound ID Exat Mass Stock Conc.
1) 100 mM potassium phosphate buffer, PH7.4; 2) 10mM MgCI2
1) Intermediate solution: Dilute 5 μL of compound or control from stock solution (10 mM) with 45 uL DMSO,then mixed with 450 μL 1:1 Methanol/Water (Conc.: 10 0 […]
2) Working solution: Dilute 50 μL from intermediate solution with 450 μL 100 mM potassium phosphate buffer (Conc.: 10 μM, 4.5%MeOH)
(3) NADPH regenerating system (final Isocitric dehydrogenase conc.= 1 unit/mL at […]
1) β-Nicotinamide adenine dinucleotide phosphate, Vendor: sigma Cat. No. N0505
2) Isocitric acid, Vendor: Sigma Cat. No. I1252
3) Isocitric dehydrogenase, Vendor: sigma Cat. No. I2002
(4) Liver microsome solution preparation (final concentration o f 0.5 mg protein/mL) […]
Cold ACN including 100 ng/mL Tolbutamide and 100 ng/mL Labetalol as internal […]
1) Add 10 μL compound or control working solution/well to all plates (T0, T5, T10, T20, T30, T60, NCF60) except matrix blank.
2) Dispense 680 μL/well microsome solution to 96-well plate as reserv oir according to […]
plate map. Then add 80 μL/well to every plate by Apricot, incubate the mixture of microsome solution and compound at 37℃ for about 10 min.
3) Add 10 μL 100 mM potassium phosphate buffer/well to NCF60, incubate at 37℃, […]
4) After pre-warming, dispense 90 μL/well NADPH regenerating system to 96-well plate as reservoir according to the plate map. Then add 10 μL/well to every plate by Apricot to start reaction.
5) Incubate at 37℃, start timer 2.
6) Add 300 (μL/well) stop solution (cold in 4℃, including 100 ng/mL Tolbutamide and 100 ng/mL Labetalol) to terminate the reaction.
7) The sampling plates are shaked for approx 10 min.
8) Samples are centrifuged at 4000 rpm for 20 min under 4℃.
9) While centrifuging, load 8×new 96-well plate with 300 μL HPLC water, then transfer 100 μL supernatant, mixed for LC/MS/MS.
Use equation of first order kinetics to calculate t1/2 and Clin t(mic): […]
Equation of first order kinetics: […]

[2] = test system: human melanoma patient-derived xenograft (PDX); experiment: Human melanoma patient-derived xenograft (PDX) tumor growth; format: in vivo, NSG mice; details: human melanoma PDX, once daily (5 days on, 2 days off) 21 days, NHWD-870-HCl
From the text: PO, oral administration; QD, once daily; BID, twice daily. b–d Tumor growth curves for A2780 ovarian tumor (n = 5) (b), TMD8 large B cell lymphoma (n = 6) (c), and B16F10 melanoma (n = 5) (d) bearing mice treated with the indicated compounds once daily for 11-21 days. e, f Tumor growth curves for A375 melanoma (n = 6) (e), and patient-derived xenograft (PDX) of melanoma (n = 5) (f) bearing mice treated with the indicated compounds once daily (5 days on, 2 days off) for 21 days. For d–f, NHWD-870 used is NHWD-870-HCl synthesized using Suzuki coupling route. Data are presented as mean ± SEM in (a, b, d, f) and mean + SEM in (c, e). p values were calculated using two-tailed, unpaired t tests. *p < 0.05; **p < 0.01; ***p < 0.001. Source data are provided as a Source Data file.
4–6 weeks old female BALB/c nude mice were used for most experiments, with the exception of 6–8 weeks old female C57BL/6 mice were used for B16F10 experiments, and 6–8 weeks old male BALB/c nude mice and SD rats were used for pharmacokinetic experiments. All animals were purchased from Shanghai SIPPR-Bk Lab Animal Co., Ltd. All animals were housed under a regimen of 12 h light/12 h dark cycles and specific pathogen-free conditions. 5×10^6 NCI-H526, ES-2, MDA-MB231, A2780, A375, B16F10, and TMD-8 cells (0.1 ml) were injected subcutaneously into female nude mice. The melanoma patient-derived xenograft model was derived from a human melanoma sample (BRAF, NARS and NF1 wild type, and p53 mutant) removed from a patient in Xiangya Hospital. Surgically removed tumor fragments were implanted subcutaneously into female NSG mice. When the tumors grew to ~1000 mm^3, they were harvested and cryopreserved or immediately re-implanted for expansion or experiments. Mouse body weight and tumor sizes were measured every 3 days. Once the tumors grew to 150–200 mm^3, mice were treated with the compounds as described in the Figures. 1 × 10^6 A2780 cells (1 ml) were injected into the abdominal cavity of nude mice. Ascitic volume and tumor weight were measured by an electronic balance. All the procedures were evaluated and approved by the Institutional Animal Care and Use Committee of Central South University and Yale University.

SMILES: Cc1nnn(C)c1-c1cnc2c3c4cnn(C)c4ccc3n([C@H](c3ccccc3)C3CCOCC3)c2c1 [NHWD-870]
- relative CSF1 mRNA level (CSF1 mRNA): 0.0037 and 0.00425 and 0.0051
- Remaining (T=60min) ([1]; rat liver microsomes): 22.3%
- Remaining (*NCF=60min) ([1]; rat liver microsomes, no cofactor): 76.0%
- CLint scaled at 1 µM ([1]; rat, liver microsomes, pH 7.4): 5.52 L/h/kg
- half-life at 1 µM ([1]; rat, liver microsomes, pH 7.4): 27.1 min
- microsomal CLint at 1 µM ([1]; rat, microsomes, pH 7.4): 51.1 µL/min/mg
- Remaining in rat liver microsomes (Sup Fig.6b) ([1]; time 0): 100
- Remaining in rat liver microsomes (Sup Fig.6b) ([1]; time 5): 91.753
- Remaining in rat liver microsomes (Sup Fig.6b) ([1]; time 10): 75.9
- Remaining in rat liver microsomes (Sup Fig.6b) ([1]; time 20): 52.356
- Remaining in rat liver microsomes (Sup Fig.6b) ([1]; time 30): 42.131
- Remaining in rat liver microsomes (Sup Fig.6b) ([1]; time 60): 22.275
- effect on tumor growth [2]: very strong tumor inhibitive effects
